From US7008531B2, “Treatment of circulating water systems” (Arch Chemicals Inc., priority 2000, dated 2006)

What was measured:
[1] = test system: field isolated mustard algae; test: Remedial laboratory study on algae (flask test, optical density after 5 days); type: cell-based; settings: for Difference in performance between octadecylamine and dimethyloctadecylamine: 2.5 ppm with PHMB 4.0 ppm, summary of Table 2; for Comments (algae control) / Average Optical Density: Table 2, 5 days; for Average Optical Density: initial absorbance 0.10, <0.2 = algistatic or algicidal
Method: Remedial efficacy was evaluated in this example using field isolated mustard algae.
Studies were conducted in 125 ml flasks containing 6 mm borosilicate glass beads (50) and Jaworski's medium (50 ml). The flasks were inoculated with pooled cultures of mustard algae to achieve an initial absorbance of 0.10, as measured using a Milton Roy Spec 20 Spectrophotometer. […] The adjuvants identified in Table 2 were added at levels of 1.25 and 2.5 ppm active ingredient. Busan 20/20™ identified in Table 3 was added at levels of 0.625, 1.25, 2.5 and 5.0 ppm. The performance of the adjuvants were compared to the controls with and without PHMB. The flasks were closed using translucent caps, illuminated for 8 hours using a combination of fluorescent grow lamps and standard incandescent lamps each day and incubated at 80° F. for a period of 5 days. Algal growth was measured after 5 days using a Milton Roy Spec 20 spectrophotometer. The higher the optical density the heavier the growth.

[2] = Effect of adjuvant on water clarity (simulated swimming pool water, Hach Turbidimeter and visual inspection); type: physicochemical; settings: for Turbidity / Visual Observations: simulated pool water with PHMB 6-12 ppm, pH 7.2-7.8, circulated 24 hours; for Turbidity: 70±3° F.; for Effect on water clarity: summary of Table 4, simulated pool water with PHMB
Method: Six 10 gallon fish aquariums equipped with a heater and a recirculating pump (to simulate a swimming pool environment) were filled with simulated swimming pool water containing polyhexamethylene biguanide (PHMB) comprising:
The pH of the tanks was maintained between 7.2 and 7.8 and the water temperature was maintained at 70±3° F. After the chemical additions the water was circulated for 24 hours. The water in each tank was then visually inspected and tested for turbidity using a Hach Turbidimeter.

[3] = test system: field isolated mustard algae; test: Preventative laboratory study on algae (flask test, visual growth score); type: cell-based; settings: for Average Visual Score: 10 days, 0-4 scale, any score >1 is a preventative failure
Method: In preventative laboratory treatment studies, growth conditions are optimised to support a bloom. An experimental flask is prepared with a medium having optimised growth conditions to support a bloom, the medium in the flask is treated with a prescribed concentration of a test formulation, and then inoculated with a low concentration of a bloom-forming organism. The medium is monitored for a period of time to observe whether the formulation is effective at preventing an algal bloom.
These studies used the most problematic organisms, i.e. field isolated mustard algae.
The Jawaorski's medium was modified by the addition of 4 ppm polyhexamethylene biguanide (PHMB) (ex Avecia Inc.) to inhibit the growth of the bacteria present in the algal isolates. The inocula were harvested by aseptic vacuum filtration and the concentration of algal cell masses were combined (“pooled”) and redispersed in a aseptic medium to provide a concentrated pooled inoculum. The amount of inoculum used was varied to achieve an initial optical density of 0.010 in the test flasks. The optical density was determined using a Milton Roy Spec 20 spectrophotometer.
[…] Each flask was then inoculated with a prescribed amount of the pooled inoculum, so that the liquid in the flask had no visible green cast.

[4] = adjuvant 1.25 ppm + PHMB 4.0 ppm
[5] = adjuvant 2.5 ppm + PHMB 4.0 ppm

Question: Which “Difference in performance between octadecylamine and dimethyloctadecylamine” value [1] does the source give for `CCCCCCCCCCCCCCCCCCN` [Octadecylamine, octadecylamine] here?
Answer: no significant difference

Question: And the “Comments (algae control)” value [1, 4]?
Answer: Control

Question: What about the “Average Optical Density” value [1, 4] of the same molecule?
Answer: 0.16

Question: What about the “Average Optical Density” value [1, 5] of the same molecule?
Answer: 0.08

Question: For `CCCCCCCCCCCCN` [Dodecylamine, dodecylamine], which Turbidity ([2]; adjuvant 2.5 ppm) is on record?
Answer: 2.7 NTU

Question: What about the “Visual Observations” value ([2]; adjuvant 2.5 ppm) of the same molecule?
Answer: Clear

Question: What about the Turbidity ([2]; adjuvant 5.0 ppm) of the same molecule?
Answer: 1.8 NTU

Question: What about the “Visual Observations” value ([2]; adjuvant 5.0 ppm) of the same molecule?
Answer: Clear

Question: What about the Turbidity ([2]; adjuvant 10.0 ppm) of the same molecule?
Answer: 2.5 NTU

Question: And the “Visual Observations” value ([2]; adjuvant 10.0 ppm)?
Answer: Clear

Question: And the “Effect on water clarity” value [2]?
Answer: no effect on water clarity

Question: What about the “Average Visual Score” value [3, 5] of the same molecule?
Answer: 0

Question: And the “Average Visual Score” value ([3]; adjuvant 5.0 ppm + PHMB 4.0 ppm)?
Answer: 0

Question: And the “Average Visual Score” value ([3]; adjuvant 10.0 ppm + PHMB 4.0 ppm)?
Answer: 0

Question: And the “Average Visual Score” value ([3]; adjuvant 15.0 ppm + PHMB 4.0 ppm)?
Answer: 0

Question: And the “Preventing the field isolated mustard algae outbreak, compared with PHMB alone” value ([3]; in combination with PHMB, summary of Table 1)?
Answer: effectiveness

Question: And the “Average Optical Density” value [1, 4]?
Answer: 0.08

Question: What about the “Comments (algae control)” value [1, 5] of the same molecule?
Answer: Control

Question: What about the “Average Optical Density” value [1, 5] of the same molecule?
Answer: 0.12

Question: With `CCCCCCCCCCCCCCN` [Tetradecylamine, reference compound] as the molecule, how does the Turbidity ([2]; adjuvant 5.0 ppm) read?
Answer: 10.1 NTU

Question: What about the “Visual Observations” value ([2]; adjuvant 5.0 ppm) of the same molecule?
Answer: Cloudy

Question: What about the Turbidity ([2]; adjuvant 10.0 ppm) of the same molecule?
Answer: 19.0 NTU

Question: And the “Visual Observations” value ([2]; adjuvant 10.0 ppm)?
Answer: Cloudy

Question: What about the “Effect on water clarity” value [2] of the same molecule?
Answer: resulted in water turbidity

Question: Which results are given for `CCCCCCCCCCCCCCCCCCN(C)C` [Dimethyloctadecylamine, dimethyloctadecylamine]?
Answer: Difference in performance between octadecylamine and dimethyloctadecylamine [1]: no significant difference; Comments (algae control) [1, 4]: Control; Average Optical Density [1, 4]: 0.12; Average Optical Density [1, 5]: 0.07
